These compounds were tested on ATF4 (assay: HEK-ATF4 High Content Imaging assay (prevention of Tunicamycin induced ISR, ATF4 nucleus/cytoplasm signal ratio)). Conditions: Homo sapiens, wild-type HEK293 cells, 6 h incubation, ATF4 immunofluorescence.
Type: cell-based
Description: HEK-ATF4 High Content Imaging assay
Example compounds were tested in the HEK-ATF4 High Content Imaging assay to assess their pharmacological potency to prevent Tunicamycin induced ISR. Wild-type HEK293 cells were plated in 384-well imaging assay plates at a density of 12,000 cells per well in growth medium (containing DMEM/F12, 10% FBS, 2 mM L-Glutamine, 100 U/mL Penicillin—100 μg/mL Streptomycin) and incubated at 37° C., 5% CO2. 24 h later, the medium was changed to 50 μL assay medium per well (DMEM/F12, 0.3% FBS, 2 mM L-Glutamine, 100 U/mL Penicillin—100 μg/mL Streptomycin). Example compounds were serially diluted in DMSO, spotted into intermediate plates and prediluted with assay medium containing 3.3 μM Tunicamycin to give an 11-fold excess of final assay concentration. In addition to the example compound testing area, the plates also contained multiples of control wells for assay normalization purposes, wells containing Tunicamycin but no example compounds (High control), as well as wells containing neither example compound nor Tunicamycin (Low control). The assay was started by transferring 5 μL from the intermediate plate into the assay plates, followed by incubation for 6 h at 37° C., 5% CO2. Subsequently, cells were fixed (4% PFA in PBS, 20 min at r.t.) and submitted to indirect ATF4 immunofluorescence staining (primary antibody rabbit anti ATF4, clone D4B8, Cell Signaling Technologies; secondary antibody Alexa Fluor 488 goat anti-rabbit IgG (H+L), Thermofisher Scientific). Nuclei were stained using Hoechst dye (Thermofisher Scientific), and plates were imaged on an Opera Phenix High Content imaging platform equipped with 405 nm and 488 nm excitation. Finally, images were analyzed using script based algorithms. The main readout HEK-ATF4 monitored the ATF4 signal ratio between nucleus and cytoplasm. Tunicamycin induced an increase in the overall ATF4 ratio signal, which was prevented by ISR modulating example compounds. In addition, HEK-CellCount readout was derived from counting the number of stained nuclei corresponding to healthy cells. This readout served as an internal toxicity control.

| IC50 | SMILES |
| --- | --- |
| 2000 to 15000 nM | O=C(COc1ccc(Cl)c(F)c1)N[C@H]1CC[C@H](c2cn3cc(C(F)(F)F)ccc3n2)NC1 [Example 6, 2-(4-chloro-3-fluoro-phenoxy)-N-[(3S,6R)-6-[6-(trifluoromethyl)imidazo[1,2-a]pyridin-2-yl]-3-piperidyl]acetamide] |
| 500 to 2000 nM | O=C(COc1ccc(Cl)c(F)c1)N[C@H]1CC[C@H](c2nc3cccc(Cl)c3o2)NC1 [Example 10, N-[(3S,6R)-6-(7-chloro-1,3-benzoxazol-2-yl)piperidin-3-yl]-2-(4-chloro-3-fluorophenoxy)acetamide] |
| 500 to 2000 nM | O=C(COc1ccc(Cl)c(F)c1)N[C@H]1CC[C@H](c2nc3ccc(OC(F)F)cc3o2)NC1 [Example 14, 2-(4-chloro-3-fluorophenoxy)-N-[(3S,6R)-6-[6-(difluoromethoxy)-1,3-benzoxazol-2-yl]piperidin-3-yl]acetamide] |
| 1 to 500 nM | O=C(COc1ccc(Cl)c(F)c1)N[C@H]1CC[C@H](c2nc3ccc(C(F)(F)F)cc3o2)NC1 [Example 16, 2-(4-chloro-3-fluorophenoxy)-N-[(3S,6R)-6-[6-(trifluoromethyl)-1,3-benzoxazol-2-yl]piperidin-3-yl]acetamide] |
| 2000 to 15000 nM | O=C(COc1ccc(Cl)c(F)c1)N[C@H]1CC[C@H](c2nc3c(Cl)cccc3o2)NC1 [Example 18, N-[(3S,6R)-6-(4-chloro-1,3-benzoxazol-2-yl)piperidin-3-yl]-2-(4-chloro-3-fluorophenoxy)acetamide] |

The next lines start with the compound.

| SMILES | IC50 |
| --- | --- |
| O=C(COc1ccc(Cl)c(F)c1)N[C@H]1CC[C@H](c2nc3ccc(Cl)cc3o2)NC1 [Example 2, N-[(3S,6R)-6-(6-chloro-1,3-benzoxazol-2-yl)piperidin-3-yl]-2-(4-chloro-3-fluorophenoxy)acetamide] | 500 to 2000 nM |
| O=C(COc1ccc(Cl)c(F)c1)N[C@H]1CC[C@H](c2nc3cc(Cl)ccc3o2)NC1 [Example 4, N-[(3S,6R)-6-(5-chloro-1,3-benzoxazol-2-yl)piperidin-3-yl]-2-(4-chloro-3-fluorophenoxy)acetamide] | 2000 to 15000 nM |
| O=C(COc1ccc(Cl)c(F)c1)N[C@H]1CC[C@H](c2cn3ccc(C(F)(F)F)cc3n2)NC1 [Example 8, 2-(4-chloro-3-fluoro-phenoxy)-N-[(3S,6R)-6-[7-(trifluoromethyl)imidazo[1,2-a]pyridin-2-yl]-3-piperidyl]acetamide] | 2000 to 15000 nM |
| O=C(COc1ccc(Cl)c(F)c1)N[C@H]1CC[C@H](c2nc3ccc(OC(F)(F)F)cc3o2)NC1 [Example 12, 2-(4-chloro-3-fluorophenoxy)-N-[(3S,6R)-6-[6-(trifluoromethoxy)-1,3-benzoxazol-2-yl]piperidin-3-yl]acetamide] | 1 to 500 nM |

— patent US12600720B2, “Modulators of the integrated stress response pathway” (Evotec International GmbH, priority 2020, dated 2026)
